Results on 15 compounds are retold here after patent US20240025863A1, “SOS1 PROTEIN DEGRADERS, PHARMACEUTICAL COMPOSITIONS THEREOF, AND THEIR THERAPEUTIC APPLICATIONS” (BioTheryX, Inc., priority 2020, published 2024).

What is called inhibition is the percentage by which the read-out fell short of the control. For orientation: IC50 means the concentration that gives 50% inhibition.

Holding throughout (assay type): cell-based
One assay concerns Molm-13 cells. In words: Inhibition of Molm-13 cells. The note with it: Homo sapiens; for inhibition at 1 µM: compound 1 μM, read-out: Inhibition of Molm-13 Cells, percentage of inhibition at 1 μM; for inhibition at 10 µM: compound 10 μM, read-out: Inhibition of Molm-13 Cells, percentage of inhibition at 10 μM.
A further assay concerns Lovo cells (G13D). Kind of assay: Cell viability assay (CellTiter-Glo), Lovo cells. The note with it: Homo sapiens, 72 h, read-out: Inhibition of Cancerous Cells IC50 Lovo (G13D). An outline of the steps: (§1)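 Viability is measured by CellTiter-Glo luminescence following a 3-day compound incubation at 37 °C in medium with 2.5% FBS.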
Another assay deals with SW480 cells (G12V). Kind of assay: Cell viability assay (CellTiter-Glo), SW480 cells. The note with it: Homo sapiens, read-out: Inhibition of Cancerous Cells IC50 SW480 (G12V). The essentials: as §1
Another assay concerns SW48 cells (wt). Kind of assay: Cell viability assay (CellTiter-Glo), SW48 cells. The note with it: Homo sapiens, read-out: Inhibition of Cancerous Cells IC50 SW48 (wt). The essentials:
as §1
On the technique in general: In ATP-based viability assays light output follows the ATP content of the culture.

Another assay relates to H23 cells. In words: Cell viability assay (CellTiter-Glo), H23 cells. The note with it: Homo sapiens, NCI-H23, 72 h, read-out: Inhibition of Cancerous Cells IC50 H23. On the procedure: H358, H23, SW48, and AsPC-1 cells were cultured in RPMI 1640 media supplemented with 10% fetal bovine serum, streptomycin, and penicillin. Lovo and SW480 cells were cultured in DMEM media supplemented with 10% fetal bovine serum, streptomycin, and penicillin. The cell lines were plated in their respective medium supplemented with 2.5% fetal bovine serum, streptomycin, and penicillin. All cell lines were plated in white walled 96-well plates at 2,000 cells/well or 384-well plates at 500 cells/well, except Lovo, which were plated at 4,000 or 1,000 cells/well, respectively. The cells were incubated in DMSO (control) or a compound for 3 days at 37° C. under 5% CO2. A CELLTITER-GLO® reagent (100 μL) was then added to each well. After a 10 min incubation with shaking, luminescence was measured using an ENVISION® multimode plate reader.

A further assay concerns H358 cells (G12C). In words: Cell viability assay (CellTiter-Glo), H358 cells. To be noted: Homo sapiens, NCI-H358, 72 h, read-out: Inhibition of Cancerous Cells IC50 H358 (G12C). The essentials: as §1
[1] abbreviates: H23 cells, 3 days incubation, CellTiter-Glo luminescence.
Setting [2] is: H358 cells, 3 days incubation, CellTiter-Glo luminescence.
Where [3] appears, read: Lovo cells, 3 days incubation, CellTiter-Glo luminescence.
Where [4] appears, read: 72 h, SW480 cells, 3 days incubation, CellTiter-Glo luminescence.
Setting [5] is: 72 h, SW48 cells, 3 days incubation, CellTiter-Glo luminescence.

Read-outs that look alike come from different tables or passages of the source. Where only a bound is given, the exact number is not on record here.

`COc1cc2nc(C)nc(N[C@H](C)c3cccc(Br)c3)c2cc1OC` [drawing 287]: in the assay with Molm-13 cells, the inhibition at 1 µM is 17% and the inhibition at 10 µM stood at 91%.
In the same order, the values of `COc1cc2c(N[C@H](C)c3cccs3)nc(C)nc2cc1OCCCCCCCCC(=O)N[C@H](C(=O)N1C[C@H](O)C[C@H]1C(=O)NCc1ccc(-c2scnc2C)cc1)C(C)(C)C` [Compound D5, (2S,4R)-4-Hydroxy-1-((S)-2-(9-((6-methoxy-2-methyl-4-(((R)-1-(thiophen-2-yl)ethyl)amino)quinazolin-7-yl)oxy)nonanamido)-3,3-dimethylbutanoyl)-N-(4-(4-methylthiazol-5-yl)benzyl)pyrrolidine-2-carboxamide] are 22% and 99%.
`COc1cc2c(N[C@H](C)c3cccc(Br)c3)nc(C)nc2cc1OCCCCCCCN1CCC(c2cc(F)cc3c2CN(C2CCC(=O)NC2=O)C3=O)CC1` (stereo partly drawn) [Compound A1, 3-(4-(1-(7-((4-(((R)-1-(3-bromophenyl)ethyl)amino)-6-methoxy-2-methylquinazolin-7-yl)oxy)heptyl)piperidin-4-yl)-6-fluoro-1-oxoisoindolin-2-yl)piperidine-2,6-dione]: the half-maximal inhibitory concentration (IC50) turned out to be 0.94 µM in the assay with Lovo cells (G13D) (LoVo); 0.58 µM in the assay on SW480 cells (G12V) (SW480, 72 h); 0.7 µM in the assay on SW48 cells (wt) (SW48, 72 h); 1.2 µM in the assay with H23 cells; 2.8 µM with H358 cells (G12C).
In the case of `COc1cc2c(N[C@H](C)c3cccc(Br)c3)nc(C)nc2cc1OCCOCCOCCOCCNc1cccc2c1C(=O)N(C1CCC(=O)NC1=O)C2=O` (stereo partly drawn) [Compound A4, 4-((2-(2-(2-(2-((4-(((R)-1-(3-bromophenyl)ethyl)amino)-6-methoxy-2-methylquinazolin-7-yl)oxy)ethoxy)ethoxy)ethoxy)ethyl)amino)-2-(2,6-dioxopiperidin-3-yl)isoindoline-1,3-dione], the 50% inhibitory concentration (IC50) in the assay on H23 cells (setting [1]) stood at 9 µM; with H358 cells (G12C) (setting [2]) it was 7.2 µM.
In the same order, the values of `COc1cc2c(N[C@H](C)c3cccc(Br)c3)nc(C)nc2cc1OCCCCCCCN1CCC(c2cc3c(cc2F)C(=O)N(C2CCC(=O)NC2=O)C3)CC1` (stereo partly drawn) [Compound A22, 3-(5-(1-(7-((4-(((R)-1-(3-bromophenyl)ethyl)amino)-6-methoxy-2-methylquinazolin-7-yl)oxy)heptyl)piperidin-4-yl)-6-fluoro-1-oxoisoindolin-2-yl)piperidine-2,6-dione] are 0.9 µM and 0.79 µM.
For `COc1cc2c(N[C@H](C)c3cccc(Br)c3)nc(C)nc2cc1OCCCN1CCC(c2cc(F)cc3c2CN(C2CCC(=O)NC2=O)C3=O)CC1` (stereo partly drawn) [Compound A10, 3-(4-(1-(3-((4-(((R)-1-(3-Bromophenyl)ethyl)amino)-6-methoxy-2-methyl-quinazolin-7-yl)oxy)propyl)piperidin-4-yl)-6-fluoro-1-oxoisoindolin-2-yl)piperidine-2,6-dione], in the assay on Molm-13 cells, the inhibition at 1 µM worked out at 22% and the inhibition at 10 µM is 99%.
Take `CNCc1ccccc1-c1csc([C@H](C)Nc2nc(C)nc3cc(OCCCCCCCCC(=O)N[C@H](C(=O)N4C[C@H](O)C[C@H]4C(=O)NCc4ccc(-c5scnc5C)cc4)C(C)(C)C)c(OC)cc23)c1` [Compound D10, (2S,4R)-4-hydroxy-1-((S)-2-(9-((6-methoxy-2-methyl-4-(((S)-1-(4-(2-((methylamino)methyl)phenyl)thiophen-2-yl)ethyl)amino)quinazolin-7-yl)oxy)nonanamido)-3,3-dimethylbutanoyl)-N-(4-(4-methylthiazol-5-yl)benzyl)pyrrolidine-2-carboxamide]: the IC50 was determined as 0.93 µM in the assay on H23 cells (setting [1]) and 0.75 µM with H358 cells (G12C) (setting [2]).
In the same order, the values of `COc1cc2c(N[C@H](C)c3cccc(Br)c3)nc(C)nc2cc1OCCOCCOCCNc1cccc2c1C(=O)N(C1CCC(=O)NC1=O)C2=O` (stereo partly drawn) [Compound A36, 4-((2-(2-(2-((4-(((R)-1-(3-Bromophenyl)ethyl)amino)-6-methoxy-2-methyl-quinazolin-7-yl)oxy)ethoxy)ethoxy)ethyl)amino)-2-(2,6-dioxopiperidin-3-yl)isoindoline-1,3-dione] are 8.3 µM and 8.8 µM.
In the case of `CCOc1cc(C(C)(C)C)ccc1C1=N[C@@](C)(c2ccc(Cl)cc2)[C@@](C)(c2ccc(Cl)cc2)N1C(=O)N1CCN(CCC(=O)NCCCCCOc2cc3nc(C)nc(N[C@H](C)c4cccc(Br)c4)c3cc2OC)CC1` [Compound C8, N-(5-((4-(((R)-1-(3-Bromophenyl)ethyl)amino)-6-methoxy-2-methylquinazolin-7-yl)oxy)pentyl)-3-(4-((4S,5R)-2-(4-(tert-butyl)-2-ethoxyphenyl)-4,5-bis(4-chlorophenyl)-4,5-dimethyl-4,5-dihydro-1H-imidazole-1-carbonyl)piperazin-1-yl)propanamide], the half-maximal inhibitory concentration (IC50) is 0.54 µM in the assay on Lovo cells (G13D) (setting [3]); 1.4 µM with SW480 cells (G12V) (setting [4]); 1.1 µM in the assay on SW48 cells (wt) (setting [5]); above 10 µM in the assay on H23 cells (setting [1]); 2.8 µM in the assay on H358 cells (G12C) (setting [2]).
In the same order, the values of `CCOc1cc(C(C)(C)C)ccc1C1=N[C@@](C)(c2ccc(Cl)cc2)[C@@](C)(c2ccc(Cl)cc2)N1C(=O)N1CCN(CCC(=O)NCCCCCCCCCOc2cc3nc(C)nc(N[C@H](C)c4cccc(Br)c4)c3cc2OC)CC1` [Compound C7, N-(9-((4-(((R)-1-(3-Bromophenyl)ethyl)amino)-6-methoxy-2-methylquinazolin-7-yl)oxy)nonyl)-3-(4-((4S,5R)-2-(4-(tert-butyl)-2-ethoxyphenyl)-4,5-bis(4-chlorophenyl)-4,5-dimethyl-4,5-dihydro-1H-imidazole-1-carbonyl)piperazin-1-yl)propanamide] are 6.6 µM, above 10 µM, above 10 µM, above 10 µM and above 10 µM.
As for `COc1cc2c(N[C@H](C)c3cccc(Br)c3)nc(C)nc2cc1OCCCCCCCCC(=O)N[C@H](C(=O)N1C[C@H](O)C[C@H]1C(=O)NCc1ccc(-c2scnc2C)cc1)C(C)(C)C` [Compound D2, (2S,4R)-1-((S)-2-(9-((4-(((R)-1-(3-bromophenyl)ethyl)amino)-6-methoxy-2-methylquinazolin-7-yl)oxy)nonanamido)-3,3-dimethylbutanoyl)-4-hydroxy-N-(4-(4-methylthiazol-5-yl)benzyl)pyrrolidine-2-carboxamide], the IC50 is 13 µM in the assay with H23 cells (setting [1]) and 15 µM with H358 cells (G12C) (setting [2]).
In the same order, the values of `COc1cc2c(N[C@@H](C)c3cccs3)nc(C)nc2cc1OCCCCCCCCC(=O)N[C@H](C(=O)N1C[C@H](O)C[C@H]1C(=O)NCc1ccc(-c2scnc2C)cc1)C(C)(C)C` [Compound D6, (2S,4R)-4-Hydroxy-1-((S)-2-(9-((6-methoxy-2-methyl-4-(((S)-1-(thiophen-2-yl)ethyl)amino)quinazolin-7-yl)oxy)nonanamido)-3,3-dimethylbutanoyl)-N-(4-(4-methylthiazol-5-yl)benzyl)pyrrolidine-2-carboxamide] are 2.7 µM and 6.1 µM.
In the same order, the values of `COc1cc2c(N[C@H](C)c3cccc(Br)c3)nc(C)nc2cc1OCCCCCCCNCc1ccc(OCc2scc3c2CN(C2CCC(=O)NC2=O)C3=O)cc1` (stereo partly drawn) [Compound A41, 3-(1-((4-(((7-((4-(((R)-1-(3-Bromophenyl)ethyl)amino)-6-methoxy-2-methyl-quinazolin-7-yl)oxy)heptyl)amino)methyl)phenoxy)methyl)-4-oxo-4H-thieno[3,4-c]pyrrol-5(6H)-yl)piperidine-2,6-dione] are 1.3 µM and 1.5 µM.
For `COc1cc2nc(C)nc(N[C@H](C)c3cccc(Br)c3)c2cc1OC` [drawing 284, reference compound], the half-inhibitory concentration (IC50) in the assay with Lovo cells (G13D) (setting [3]) is 2.2 µM; in the assay with SW480 cells (G12V) (setting [4]), 2.8 µM; in the assay with SW48 cells (wt) (setting [5]) it was 3.6 µM; in the assay with H23 cells (setting [1]), 4.8 µM; in the assay on H358 cells (G12C) (setting [2]), 4.1 µM.
On to `COc1cc2c(N[C@H](C)c3cccc(Br)c3)nc(C)nc2cc1OCCCCCCCCCN1CCC(c2cc(F)cc3c2CN(C2CCC(=O)NC2=O)C3=O)CC1` (stereo partly drawn) [Compound A12, 3-(4-(1-(9-((4-(((R)-1-(3-Bromophenyl)ethyl)amino)-6-methoxy-2-methyl-quinazolin-7-yl)oxy)nonyl)piperidin-4-yl)-6-fluoro-1-oxoisoindolin-2-yl)piperidine-2,6-dione], for which the IC50 was determined as 1.2 µM with H23 cells (setting [1]) and 1.4 µM with H358 cells (G12C) (setting [2]).
